Test results taken from US20230339886A1 (University of Florida Research Foundation, Incorporated, priority 2020, published 2023).
Where two headings read alike, the source gives them in different places.

Assays:
[1] = target: T1, REV-ERBα LBD (human; residues 281-614 Δ324-422) (Homo sapiens, UniProt P20393, DEL324-422); assay: TR-FRET corepressor interaction assay (REV-ERBα LBD, FITC-SMRT peptide); assay type: biochemical
T1 construct: 6×Histag-REV-ERBα LBD (human; residues 281-614 Δ324-422); made in house; host or cells: Escherichia coli
T1 sequence (P20393 with tags, fused parts or gaps DEL324-422): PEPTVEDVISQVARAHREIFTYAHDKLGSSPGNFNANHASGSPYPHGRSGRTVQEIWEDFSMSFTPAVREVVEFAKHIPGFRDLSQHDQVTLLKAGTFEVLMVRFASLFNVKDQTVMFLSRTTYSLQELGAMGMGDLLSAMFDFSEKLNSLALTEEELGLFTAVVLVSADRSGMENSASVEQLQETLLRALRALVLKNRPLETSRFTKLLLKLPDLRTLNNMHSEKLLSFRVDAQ
T1 sequence (Q9Y618 2335-2356 partner limits assumed): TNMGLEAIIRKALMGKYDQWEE
Method in brief: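 Compound serial dilutions (in DMSO, triplicate) incubated 2 h at 4 °C; Tb donor excited at 340 nm, emission read at 495 nm and FITC acceptor at 520 nm. TR-FRET ratio (520/495 nm) plotted against ligand concentration and fitted to a sigmoidal dose-response curve.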

REV-ERBβ = target: T2, REV-ERBβ (Homo sapiens, UniProt Q14995); assay: TR-FRET corepressor interaction assay (REV-ERBβ, FITC-SMRT peptide); assay type: biochemical; conditions: Table 2, read-out: REVERBβ agonism (EC50 class, FRET assay)
T2 construct: 6×Histag-REV-ERBα LBD (human; residues 381-579); made in house; host or cells: Escherichia coli
T2 sequence (Q14995 381-579): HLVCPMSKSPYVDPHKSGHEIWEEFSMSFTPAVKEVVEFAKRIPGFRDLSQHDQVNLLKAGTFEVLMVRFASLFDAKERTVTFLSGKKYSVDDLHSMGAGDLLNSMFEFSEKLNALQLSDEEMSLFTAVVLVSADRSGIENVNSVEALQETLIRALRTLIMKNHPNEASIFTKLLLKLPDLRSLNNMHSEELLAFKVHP
Method: TR-FRET corepressor interaction assay. The time-resolved fluorescence resonance energy transfer (TR-FRET) assay was performed in black low-volume 384-well plates (Greiner). […] Ligand stocks were prepared via serial dilution in DMSO, added to wells in triplicate, and plates were incubated at 4° C. for 2 h and read using a BioTek Synergy Neo multimode plate reader. The Tb donor was excited at 340 nm; its fluorescence emission was monitored at 495 nm, and the acceptor FITC emission was measured at 520 nm; and the TR-FRET ratio was calculated as the signal at 520 nm divided by the signal at 495 nm. Data were plotted using GraphPad Prism as TR-FRET ratio vs. ligand concentration and fit to sigmoidal dose response curve equation.
Exemplary compounds of the present disclosure were assayed as described above to assess agonism of REV-ERBα and REV-ERBβ.

[2] = Table 2, read-out: REVERBα agonism (EC50 class, FRET assay)
[3] = FITC-SMRT peptide, read-out: REVERBα agonism (EC50 class, FRET assay)

| Structure (SMILES) | EC50 [1, 2] [nM] | EC50 (REV-ERBβ) [nM] | EC50 [1, 3] [nM] |
| --- | --- | --- | --- |
| CC(C)Cn1cc(CCNS(=O)(=O)N(C)C)c2ccc(C3CCCCC3)cc21 [Compound 16] | < 500 | 500 to 3000 |  |
| CC(C)(C)Cn1cc([C@H](NS(=O)(=O)C2CCC2(F)F)C(F)(F)F)c2ccc(-c3ccccc3C(F)(F)F)cc21 (stereo partly drawn) [Example 537, 2,2-difluoro-N—((S)-2,2,2-trifluoro-1-(1-neopentyl-6-(2-(trifluoromethyl)phenyl)-1H-indol-3-yl)ethyl)cyclobutane-1-sulfonamide] |  |  | > 3000 |
| CC(C)(C)Cn1cc([C@H](NS(=O)(=O)C2CCC2)C(F)(F)F)c2cc(F)c(-c3ncccc3C#N)cc21 [Example 538, (S)—N-(1-(6-(3-cyanopyridin-2-yl)-5-fluoro-1-neopentyl-1H-indol-3-yl)-2,2,2-trifluoroethyl)cyclobutanesulfonamide] |  |  | < 500 |
| CC(C)(C)Cn1cc([C@H](NS(=O)(=O)C2CC2)C(F)F)c2ccc(-c3ccccc3C(F)(F)F)cc21 [Example 541, (S)—N-(2,2-difluoro-1-(1-neopentyl-6-(2-(trifluoromethyl)phenyl)-1H-indol-3-yl)ethyl)cyclopropanesulfonamide] |  |  | < 500 |
| CC(C)(C)Cn1cc([C@H](NS(=O)(=O)C2CC2)C(F)F)c2cc(F)c(-c3ccccc3C(F)(F)F)cc21 [Example 542, (S)—N-(2,2-difluoro-1-(5-fluoro-1-neopentyl-6-(2-(trifluoromethyl)phenyl)-1H-indol-3-yl)ethyl)cyclopropanesulfonamide] |  |  | < 500 |
| CC(C)(C)Cn1cc([C@H](NS(=O)(=O)C2CC2)C(F)F)c2ccc(-c3c(F)cccc3C(F)(F)F)cc21 [Example 543, (S)—N-(2,2-difluoro-1-(6-(2-fluoro-6-(trifluoromethyl)phenyl)-1-neopentyl-1H-indol-3-yl)ethyl)cyclopropanesulfonamide] |  |  | < 500 |
| CC(C)(C)Cn1cc([C@H](NS(=O)(=O)C2CCC2)C(F)(F)F)c2ccc(-c3ccccc3C(F)(F)F)c(F)c21 [Example 544, (S)—N-(2,2,2-trifluoro-1-(7-fluoro-1-neopentyl-6-(2-(trifluoromethyl)phenyl)-1H-indol-3-yl)ethyl)cyclobutanesulfonamide] |  |  | < 500 |
| CC(C)(C)Cn1cc([C@H](NS(=O)(=O)C2CC2)C(F)F)c2ccc(-c3c(C#N)cccc3C(F)(F)F)cc21 [Example 545, (S)—N-(1-(6-(2-cyano-6-(trifluoromethyl)phenyl)-1-neopentyl-1H-indol-3-yl)-2,2-difluoroethyl)cyclopropanesulfonamide] |  |  | < 500 |
| CC(C)(C)Cn1cc([C@H](NS(=O)(=O)C2CC2)C(F)F)c2cc(F)c(-c3ccccc3C(F)(F)F)nc21 [Example 546, (S)—N-(2,2-difluoro-1-(5-fluoro-1-neopentyl-6-(2-(trifluoromethyl)phenyl)-1H-pyrrolo[2,3-b]pyridin-3-yl)ethyl)cyclopropanesulfonamide] |  |  | < 500 |
| CC(C)(C)Cn1cc([C@H](NS(=O)(=O)C2CC2)C(F)F)c2ccc(-c3ccccc3C(F)(F)F)nc21 [Example 547, (S)—N-(2,2-difluoro-1-(1-neopentyl-6-(2-(trifluoromethyl)phenyl)-1H-pyrrolo[2,3-b]pyridin-3-yl)ethyl)cyclopropanesulfonamide] |  |  | < 500 |
| [2H][C@](NS(=O)(=O)C1CC1)(c1cn(CC(C)(C)C)c2cc(-c3ccccc3C(F)(F)F)ccc12)C(F)F [Example 550, (S)—N-(2,2-difluoro-1-(1-neopentyl-6-(2-(trifluoromethyl)phenyl)-1H-indol-3-yl)ethyl-1-d)cyclopropanesulfonamide] |  |  | < 500 |
| CC(C)(C)Cn1cc([C@H](NS(=O)(=O)C2CC2)C(F)F)c2ccc(-c3ccc(F)cc3C(F)(F)F)cc21 [Example 551, (S)—N-(2,2-difluoro-1-(6-(4-fluoro-2-(trifluoromethyl)phenyl)-1-neopentyl-1H-indol-3-yl)ethyl)cyclopropanesulfonamide] |  |  | < 500 |
| CC(C)(C)Cn1cc([C@H](NS(=O)(=O)C2CCC2)C(F)F)c2ccc(-c3ccccc3C(F)(F)F)c(F)c21 [Example 552, (S)—N-(2,2-difluoro-1-(7-fluoro-1-neopentyl-6-(2-(trifluoromethyl)phenyl)-1H-indol-3-yl)ethyl)cyclobutanesulfonamide] |  |  | < 500 |
| CC(C)(C)Cn1cc([C@H](NS(=O)(=O)C2CC2)C(F)F)c2ccc(-c3ccccc3C(F)(F)F)c(F)c21 [Example 553, (S)—N-(2,2-difluoro-1-(7-fluoro-1-neopentyl-6-(2-(trifluoromethyl)phenyl)-1H-indol-3-yl)ethyl)cyclopropanesulfonamide] |  |  | < 500 |
| CC(C)(C)Cn1cc([C@H](NS(=O)(=O)C2CCC2)C(F)F)c2ccc(-c3ccc(F)cc3C(F)(F)F)cc21 [Example 562, (S)—N-(2,2-difluoro-1-(6-(4-fluoro-2-(trifluoromethyl)phenyl)-1-neopentyl-1H-indol-3-yl)ethyl)cyclobutanesulfonamide] |  |  | < 500 |
| [2H][C@](NS(=O)(=O)C1CCC1)(c1cn(CC(C)(C)C)c2cc(-c3ccccc3C(F)(F)F)ccc12)C(F)F [Example 563, (S)—N-(2,2-difluoro-1-(1-neopentyl-6-(2-(trifluoromethyl)phenyl)-1H-indol-3-yl)ethyl-1-d)cyclobutanesulfonamide] |  |  | < 500 |
| [2H]C([2H])(n1cc([C@H](NS(=O)(=O)C2CC2)C(F)(F)F)c2ccc(-c3ccccc3C(F)(F)F)cc21)C(C)(C)C [Example 564, (S)—N-(1-(1-(2,2-dimethylpropyl-1,1-d2)-6-(2-(trifluoromethyl)phenyl)-1H-indol-3-yl)-2,2,2-trifluoroethyl)cyclopropanesulfonamide] |  |  | < 500 |

Next, values leading:

| EC50 [1, 2] [nM] | EC50 (REV-ERBβ) [nM] | EC50 [1, 3] [nM] | Structure (SMILES) |
| --- | --- | --- | --- |
| < 500 | > 3000 |  | CC(C)Cn1cc(CCNS(=O)(=O)C2CCCC2)c2ccc(-c3ccncc3)cc21 [Compound 11] |
| < 500 | > 3000 |  | CC(C)Cn1cc(CCNS(=O)(=O)CC(C)C)c2ccc(-c3ccncc3)cc21 [Compound 12] |
| < 500 | > 3000 |  | CC(C)Cn1cc(CCNS(=O)(=O)C2CC2)c2ccc(-c3ccncc3)cc21 [Compound 13] |
| > 3000 | > 3000 |  | Cc1noc(C)c1S(=O)(=O)NCCc1cn(CC(C)C)c2cc(-c3ccncc3)ccc12 [Compound 14] |
| 500 to 3000 | > 3000 |  | CC(C)Cn1cc(CCNS(=O)(=O)c2cccnc2)c2ccc(-c3ccncc3)cc21 [Compound 15] |
| 500 to 3000 | > 3000 |  | CC(C)Cn1cc(CCNS(=O)(=O)N(C)C)c2ccc(-c3ccnc(C(F)(F)F)c3)cc21 [Compound 17] |
| > 3000 | > 3000 |  | CC(C)Cn1cc(CCNS(=O)(=O)N(C)C)c2ccc(-c3cc[nH]c(=O)c3)cc21 [Compound 18] |
| < 500 | > 3000 |  | CC(C)Cn1cc(CCNS(=O)(=O)N(C)C)c2ccc(-c3ccnc(Cl)c3)cc21 [Compound 20] |
| 500 to 3000 | > 3000 |  | CC(C)Cn1cc(CCNS(=O)(=O)N(C)C)c2ccc(-c3ccnc(N)c3)cc21 [Compound 21] |
|  | 500 to 3000 |  | CC(C)Cn1cc(CCNS(=O)(=O)N(C)C)c2ccc(-c3ccncc3)cc21 [Compound 27, dimethyl({2-[1-(2-methylpropyl)-6-(pyridin-4-yl)-1H-indol-3-yl]ethyl}sulfamoyl)amine] |
| < 500 | > 3000 |  | CC(C)Cn1cc(CCNS(=O)(=O)N(C)C)c2ccc(-c3cccnc3)cc21 [Compound 28, dimethyl({2-[1-(2-methylpropyl)-6-(pyridin-3-yl)-1H-indol-3-yl]ethyl}sulfamoyl)amine] |
|  | 500 to 3000 |  | CC(C)Cn1cc(CCNS(=O)(=O)N(C)C)c2ccc(-c3ccccc3)cc21 [Compound 30, dimethyl({2-[1-(2-methylpropyl)-6-phenyl-1H-indol-3-yl]ethyl}sulfamoyl)amine] |
|  | 500 to 3000 |  | CC(C)Cc1cn(CCNS(=O)(=O)N(C)C)c2ccc(-c3ccncc3)cc12 [Example 23, dimethyl({2-[3-(2-methylpropyl)-5-(pyridin-4-yl)-1H-indol-1-yl]ethyl}sulfamoyl)amine] |
|  | > 3000 |  | COc1ccccc1-c1ccc2c(CCNS(=O)(=O)N(C)C)cn(CC(C)C)c2c1 [Example 58, N-{2-[6-(2-methoxylphenyl)-1-(2-methylpropyl)-1H-indol-3-yl]ethyl}-N,N-dimethylsulfuric diamide] |
|  | > 3000 |  | CC(C)Cn1cc(CCNS(=O)(=O)N(C)C)c2ccc(-c3ccccc3Cl)cc21 [Example 78, N-{2-[6-(2-chlorophenyl)-1-(2-methylpropyl)-1H-indol-3-yl]ethyl}-N,N-dimethylsulfuric diamide] |
|  | > 3000 |  | CC(C)Cn1cc(CCNS(=O)(=O)N(C)C)c2ccc(C3CC3)cc21 [Example 82, N-{2-[6-cyclopropyl-1-(2-methylpropyl)-1H-indol-3-yl]ethyl}-N,N-dimethylsulfuric diamide] |
